{"source": "patent US12358963B2", "about": "“Regenerative polypeptides and uses thereof” (Juvena Therapeutics, Inc., priority 2019, dated 2025)", "format_in_all_cases": "cell-based", "key": {"mouse myoblast cells": {"test_system": "mouse myoblast cells", "assay": "Mouse myoblast proliferation assay (EdU)", "settings": "for % EdU: vehicle 3.14", "method": "FIG. 5A) Bar graph quantitation of % EdU+ mouse myoblast in response to BMP7. Myoblast were cultured 48h in the presence of BMP7 at indicated dose. Fresh media and BMP7 was added every 24h, followed by 2 hour EdU pulse and fixation. Mean∓S.D. Significant p-values (Vehicle˜BMP7 0.025 ug/mL: 1.21E-07, Vehicle˜BMP7 0.075 ug/mL: 8.05E-07, Vehicle˜BMP7 0.2255 ug/mL: 3.37E-03, Vehicle˜BMP7 0.9 ug/mL: 4.99E-02). FIG. 5B) Bar graph quantitation of % EdU+ human myoblast (person) in response to BMP7. Myoblast were cultured 72h in the presence of BMP7 at indicated dose. Cells were pulsed with EdU for 4 hours before fixation. Mean∓S.D. Significant p-values (Vehicle˜BMP7 1.56 ng/mL: 0.04). (*p<0.05 by Welch's One-Tailed T-test, n=2)\nFIG. 6A) Bar graph of % EdU+ mouse myoblast cells compared to vehicle. Mouse myoblast were cultured 48h in the presence of indicated factors, followed by a 2 hour EdU pulse prior to fixation. Mean∓S.D. Significant p-values (FM˜BMP7: 0.008 ug/mL: 3.17E-02, FM˜Leucine: 300 uM BMP7: 0.008 ug/mL: 2.77E-03, FM˜Leucine: 100 uM BMP7: 0.008 ug/mL: 3.72E-05, FM˜Leucine: 900 uM BMP7: 0.008 ug/mL: 2.52E-03). (*p<0.05 by One-Way ANOVA Tukey Honest Significant Difference, n=2-6)\nFIG. 7A: Bar graph of % EdU+ mouse myoblast cells compared to vehicle. Mouse myoblast were cultured 48h in the presence of indicated factors. EdU pulse and fixation. Mean∓S.D. (*p<0.05 by Student's One-Tailed T-Test of increased activity, n=2-6)\nFIG. 10A) The suspension CHO cells were transiently transfected with either the empty control plasmid or the FGF17-hFcm encoding plasmid. After four days, the culture supernatants were collected and added into the culture of mouse myoblast cells for 48 hours, followed by a 2 hour EdU pulse prior to fixation. […] FIG. 10B) The suspension CHO cells were transiently transfected with the FGF17-hFcm encoding plasmid. After four days, the culture supernatants were collected and FGF17-hFcm was affinity-purified by Protein A membrane column. The purified FGF17-hFcm was added into the culture of mouse myoblast cells for 48 hours, followed by a 2 hour EdU pulse and fixation.\n(§1) FIG. 11A: SDS-PAGE of culture supernatants from CHO cells transiently transfected with FGF17-hFcm or its mutants encoding plasmids (FGF17d181-216-hFcm, FGF17d204-216-hFcm, FGF17R204QK207Q-hFcm). The expressed FGF17-hFcm proteins and the mutant proteins were indicated by the white arrowheads. FIG. 11B) The culture supernatants from CHO cells transiently transfected with different FGF17 encoding plasmids were added into the culture of mouse myoblast cells for 48 hours followed by 2 hour EdU pulse and fixation.\nas §1, with “12A)” for “11A:”, “(FGF17d197-216-hFcm, FGF17K191AK193AS200A-hFcm).” for “(FGF17d181-216-hFcm, FGF17d204-216-hFcm, FGF17R204QK207Q-hFcm).”, “12B)” for “11B)”, “hours,” for “hours”\nFIG. 14A: Bar graph of % EdU+ mouse myoblast cells compared to vehicle. Myoblast were cultured 48h in the presence of indicated factors. […] Mean∓S.D. Table quantitation of % EdU and p-values (*p<0.05 by One-Way ANOVA Tukey Honest Significant Difference, n=2-6)\nFIG. 15A: Bar graph of % EdU+ mouse myoblast cells compared to vehicle. […] Mean∓S.D. Table quantitation of % EdU and p-values shown. […]"}, "DM1 human myoblast": {"test_system": "DM1 human myoblast", "assay": "Gene expression fold change in DM1 human myoblast", "settings": "48h; BMP7 50 ng/mL, Butyrate 100 nM, IGF2 200 ng/mL; FM 1.000"}, "Mouse myoblasts": {"test_system": "Mouse myoblasts", "assay": "Mouse myoblast fusion index with sodium butyrate", "settings": "48h, vehicle 7.56", "method": "Mouse myoblasts were treated with PBS or sodium butyrate at concentrations 0.1 nM, 1 nM, and 10 nM. Myoblasts were cultured for 48 hours, with fresh media added every 24 hours. Cells were pulsed for 2-5 hours with EdU (30 uM), ethanol fixed, stained with Hoescht 3342, immunostained for proliferation—as measured by the percent of cells staining positive for EdU (% EdU)—, and immunostained for differentiation—as measured by the increase in cellular area staining positive for embryonic myosin heavy chain (% eMyHC) relative to the negative controls, which received media and vehicle only. […] Significance was determined by a p-value less than 0.05 by the one-way ANOVA Tukey Honest Significant Difference test.\nFIG. 2A: Bar graph of fusion index in response to sodium butyrate (NaBut) compared to vehicle. Myoblast were cultured 48h in the presence of NaBut at indicated dose. Fresh media and NaBut were added every 24h. Mean∓S.D. Table quantitation of fusion index and p-values also shown. (*p<0.05 by Student's Two-tailed T-test, n=3-5)"}, "human myoblast cells [1]": {"test_system": "human myoblast cells", "assay": "Human myoblast differentiation, % area eMyHC (IGF2, sodium butyrate)", "settings": "96h, vehicle 6.813", "method": "Fresh media was added every 24 hours. […] The total area of eMyHc positive cells was analyzed, and treated cells were compared to cells treated with the vehicle alone. […] Myoblast were cultured 96h in the presence of BMP7 at indicated dose. Fresh media and BMP7 was added every 24h. Mean∓S.D. (*p<0.05 by One-Way Anova Tukey Honest Significant Difference, n=2-12) […] Fresh media was added every 24 hours. […] FIG. 3A: Bar graph of % Area eMyHC+ age human myoblast (person) in response to indicated treatment compared to Vehicle (vehicle). Myoblast were cultured 96h in the presence of factors at indicated dose. Fresh media and factors were added every 24h. Mean∓S.D. Significant p-values (Vehicle IGF2: 0.03 ug/mL: 1.42E-08, Vehicle NaBut: 1 nM IGF2: 0.03 ug/mL: 1.79E-11, Vehicle NaBut: 10 nM IGF2: 0.03 ug/mL: 1.80E-11, Vehicle NaBut: 100 nM IGF2: 0.03 ug/mL: 1.79E-11). […] Myoblast were cultured 96h in the presence of BMP7 at indicated dose. Mean±S.D. Significant p-values (IGF2 NaBut: 1 nM IGF2: 0.03 ug/mL: 1.88E-3, Vehicle NaBut: 10 nM IGF2: 0.03 ug/mL: 4.80E-3, Vehicle NaBut: 100 nM IGF2: 0.03 ug/mL: 1.87E-3) (*p<0.05 by One-Way ANOVA Tukey Honest Significant Difference, n=2-12)"}, "human myoblast cells [2]": {"test_system": "human myoblast cells", "assay": "Human myoblast differentiation, percentage area of MyHC", "settings": "Example 3, purified, 96 hours with daily media change; vehicle control 1.384", "method": "(§2) FIG. 1A: The suspension CHO cells were transiently transfected with the IGF2-hFcm encoding plasmid. IGF2-hFcm was affinity-purified by Protein A membrane column. The purified IGF2-hFcm was added into the culture of human myoblast cells for 96 hours. Myosin heavy chain (MyHC) was immunostained and imaged by a fluorescence microscope.\nas §2, with “The” for “FIG. 1A: The”, “IGF2-LhFc4” for “IGF2-hFcm”, “hours with daily media change.” for “hours.”\nThe suspension CHO cells were transiently transfected with the HSA-L-IGF2R61A encoding plasmid. HSA-L-IGF2R61A was affinity-purified by Protein A membrane column. […] Myosin heavy chain (MyHC) was immunostained and imaged by a fluorescence microscope.\nSuspension CHO cells were transiently transfected with the IGF2-hFcm encoding plasmid. […] After quantification of the stained MyHC, the percentage area of MyHC was calculated as the percent of pixels within the field that are illuminated above background in the stained channel. […] Significance was determined by a p-value less than 0.05 by the one-way ANOVA Tukey Honest Significant Difference test."}}}
{"compound": "CC(C)C[C@H](N)C(=O)O", "note": "[Leucine]", "values": [{"measurement": "Effect on BMP7 mitogenic activity (% EdU+)", "setting": "mouse myoblast cells; Leucine 100, 300, 900 uM with BMP7 0.008 ug/mL, 48h", "value": "Enhances BMP7 Mitogenic Activity"}]}
{"compound": "CCCC(=O)[O-].[Na+]", "note": "[NaBut, sodium butyrate]", "values": [{"measurement": "MYF5 expression fold change compared to FM", "setting": "DM1 human myoblast", "value": 1.128}, {"measurement": "MYOD1 expression fold change compared to FM", "setting": "DM1 human myoblast", "value": 1.095}, {"measurement": "MYOG expression fold change compared to FM", "setting": "DM1 human myoblast", "value": 1.020}, {"measurement": "Fusion Index (nuclei/myotube)", "setting": "Mouse myoblasts; 0.1 nM", "value": 8.44, "unit": "nuclei/myotube"}, {"measurement": "Fusion Index (nuclei/myotube)", "setting": "Mouse myoblasts; 1 nM", "value": 31.60, "unit": "nuclei/myotube"}, {"measurement": "Fusion Index (nuclei/myotube)", "setting": "Mouse myoblasts; 10 nM", "value": 14.00, "unit": "nuclei/myotube"}, {"measurement": "% eMyHC", "setting": "human myoblast cells [1]; NaBut 1 nM", "value": 2.321, "unit": "%"}, {"measurement": "% eMyHC", "setting": "human myoblast cells [1]; NaBut 10 nM", "value": 6.199, "unit": "%"}, {"measurement": "% eMyHC", "setting": "human myoblast cells [1]; NaBut 100 nM", "value": 8.341, "unit": "%"}]}
{"compound": "Heparin [reference compound]", "values": [{"measurement": "% EdU", "setting": "mouse myoblast cells; Heparin 0.5 ug/mL, 48h", "value": 1.77, "unit": "%"}, {"measurement": "% EdU", "setting": "mouse myoblast cells; Heparin 1 ug/mL, 48h", "value": 3.01, "unit": "%"}, {"measurement": "% EdU", "setting": "mouse myoblast cells; Heparin 2 ug/mL, 48h", "value": 2.85, "unit": "%"}]}
{"compound": "Hyaluronic Acid [Hyaluronic Acid (HA)]", "values": [{"measurement": "Effect on BMP7 mitogenic activity (% EdU+)", "setting": "mouse myoblast cells; hyaluronic acid with BMP7, 48h", "value": "Enhances BMP7 Mitogenic Activity"}]}
{"compound": "IGF2-hFc4: IGF2 fused to hFc4, human IgG4 Fc with S228P point mutation", "values": [{"measurement": "% MyHC", "setting": "human myoblast cells [2]", "value": 6.901, "unit": "%"}]}
